Paper PMC11477792, “Fabrication of a Heptapeptide-Modified Poly(glycidyl Methac-Rylate) Nanosphere for Oriented Antibody Immobilization and Immunoassay” (Molecules, 2024)
Entries after “also recorded” stand apart in the source; their conditions may differ. Values belong to the substance of their own block, whether it stands above or below them.

Experiments:
Fc region of IgG = settings: ref [17],[21] (b5); ref [15],[16],[17]; cited from earlier work
Description: (§1) Nowadays, numerous synthetic peptides are designed to specifically recognize and bind the conserved fragment crystallizable (Fc) region of IgG [18, 19], which is one of the most widely utilized types of antibodies in bioanalytical analysis. The Fc binding peptides made excellent exposure of the fragment antigen binding (Fab) region of IgG and thus maintained an easy approachability to the antigen-binding sites of the immobilized antibodies.

[1] = target: heptapeptide HWRGWVC (HC7) coupled to poly(glycidyl methacrylate) nanospheres (PGMA-HC7); experiment: batch adsorption isotherm (Langmuir fit); bovine IgG 0.4-4 mg/mL added to PGMA-HC7 nanosphere suspension, physiological buffer, 37 °C, 5 min; supernatant IgG read at 280 nm after centrifugation, adsorbed amount by mass balance
IgG = settings: ref [22]; cited from earlier work
Description: as §1

Substance: HWRGWV [hexapeptide ligand that could specifically recognize the Fc region of the antibody]
Fc selectivity relative to protein A / protein G (Fc region of IgG): comparable to protein A but not comparable to protein G; also recorded: comparable to protein A

Kd [1]: 5.8 µM
Substance: bovine immunoglobulin G (IgG) (antibody)

Substance: HWRGWVC [HC7, heptapeptide ligand HWRGWVC, 95% purity, synthesized by GL Biochem Ltd]
affinity for IgG relative to HWRGWV (IgG): two orders of magnitude stronger
